biological target: Acetylcholinesterase (Homo sapiens, UniProt P22303); experiment: Concentration required for 50% Acetylcholinesterase inhibition
Sequence (P22303 whole entry): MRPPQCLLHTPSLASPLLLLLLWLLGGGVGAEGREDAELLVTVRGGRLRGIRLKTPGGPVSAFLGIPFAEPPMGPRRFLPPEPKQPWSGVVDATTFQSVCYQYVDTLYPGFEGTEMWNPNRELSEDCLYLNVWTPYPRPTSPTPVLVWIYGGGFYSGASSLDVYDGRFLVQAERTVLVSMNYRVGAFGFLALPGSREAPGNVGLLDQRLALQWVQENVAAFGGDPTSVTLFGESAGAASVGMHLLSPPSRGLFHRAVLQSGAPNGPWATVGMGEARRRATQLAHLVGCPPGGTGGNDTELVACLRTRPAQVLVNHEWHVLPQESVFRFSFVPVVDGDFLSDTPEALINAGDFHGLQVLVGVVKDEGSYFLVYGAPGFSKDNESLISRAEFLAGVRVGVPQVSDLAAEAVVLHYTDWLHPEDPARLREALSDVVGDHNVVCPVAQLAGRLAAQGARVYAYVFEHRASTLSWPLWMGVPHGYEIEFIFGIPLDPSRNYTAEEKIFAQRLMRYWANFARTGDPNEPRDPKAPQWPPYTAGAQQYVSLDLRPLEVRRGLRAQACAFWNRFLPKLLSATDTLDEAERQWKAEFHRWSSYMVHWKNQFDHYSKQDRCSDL

Q: With `CC(=O)N1C(=O)[C@@H](C)[C@@H]2[C@@H]1CCN2C(=O)[C@@H]1CCCN1S(=O)(=O)c1cccc2c(N(C)C)cccc12` as the compound, how does the IC50 read?
A: > 100 µM

Q: For `C[C@@H]1C(=O)N(C(=O)C2CC2)[C@H]2CCN(C(=O)[C@@H]3CCCN3S(=O)(=O)c3cccc4c(N(C)C)cccc34)[C@H]12`, which IC50 is on record?
A: > 100 µM

biological target: not listed separately; experiment: Concentration required for 50% elastase inhibition

Q: For `CC(=O)N1C(=O)[C@@H](C)[C@@H]2[C@@H]1CCN2C(=O)[C@@H]1CCCN1S(=O)(=O)c1cccc2c(N(C)C)cccc12`, which IC50 is on record?
A: > 10 µM

Q: Which IC50 does the source give for `C[C@@H]1C(=O)N(C(=O)C2CC2)[C@H]2CCN(C(=O)[C@@H]3CCCN3S(=O)(=O)c3cccc4c(N(C)C)cccc34)[C@H]12` here?
A: > 10 µM

biological target: T1, Capsid scaffolding protein (Human cytomegalovirus (strain AD169) (HHV-5) (Human herpesvirus 5), UniProt P16753); experiment: Concentration required for inhibition of human cytomegalo virus (HCMV) protease activity.; design: species or system Human herpesvirus 5 strain AD169
T1 sequence (P16753 whole entry): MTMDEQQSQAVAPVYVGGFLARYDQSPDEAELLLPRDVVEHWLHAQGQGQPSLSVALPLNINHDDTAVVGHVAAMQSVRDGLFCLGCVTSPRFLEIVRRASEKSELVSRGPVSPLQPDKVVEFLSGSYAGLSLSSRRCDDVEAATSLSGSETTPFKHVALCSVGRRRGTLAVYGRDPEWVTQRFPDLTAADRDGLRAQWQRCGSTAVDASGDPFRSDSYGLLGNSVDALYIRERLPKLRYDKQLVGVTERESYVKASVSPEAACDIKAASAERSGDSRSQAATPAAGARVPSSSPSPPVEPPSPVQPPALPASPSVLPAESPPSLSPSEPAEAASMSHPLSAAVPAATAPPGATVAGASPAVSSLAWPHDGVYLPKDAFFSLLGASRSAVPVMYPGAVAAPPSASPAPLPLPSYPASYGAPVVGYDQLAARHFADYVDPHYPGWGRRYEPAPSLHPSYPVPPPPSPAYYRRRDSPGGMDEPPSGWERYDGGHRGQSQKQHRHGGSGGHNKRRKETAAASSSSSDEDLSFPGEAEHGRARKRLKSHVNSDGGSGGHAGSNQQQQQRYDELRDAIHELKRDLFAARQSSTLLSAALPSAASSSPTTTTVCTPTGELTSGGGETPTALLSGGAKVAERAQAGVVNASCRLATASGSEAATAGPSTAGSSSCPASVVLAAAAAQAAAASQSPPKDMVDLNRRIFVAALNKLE

Q: For `CC(=O)N1C(=O)[C@H](C)[C@H]2[C@H]1CCN2C(=O)[C@@H]1CCCN1S(=O)(=O)c1ccc(C)cc1`, which IC50 is on record?
A: 159 µM

Q: For `C[C@@H]1C(=O)N(C(=O)C2CC2)[C@H]2CCN(C(=O)[C@@H]3CCCN3S(=O)(=O)Cc3cccc(N(C)C)c3)[C@H]12`, which IC50 is on record?
A: 2.2 µM

Q: With `C[C@@H]1C(=O)N(C(=O)C2C(C)(C)C2(C)C)[C@H]2CCN(C(=O)OCc3ccccc3)C12` (some centres undefined) as the compound, how does the IC50 read?
A: > 500 µM

Q: For `CC(=O)N1C(=O)[C@@H](C)[C@@H]2[C@@H]1CCN2C(=O)[C@@H]1CCCN1S(=O)(=O)c1cccc2c(N(C)C)cccc12`, which IC50 is on record?
A: 0.54 µM

Q: Which IC50 does the source give for `CC(=O)N1C(=O)[C@H](C)[C@H]2[C@H]1CCN2C(=O)[C@@H]1CCCN1S(=O)(=O)c1cccc2c(N(C)C)cccc12` here?
A: > 500 µM

Q: With `CC(=O)N1C(=O)[C@@H](C)C2[C@@H]1CCN2S(=O)(=O)CCc1ccccc1` (some centres undefined) as the compound, how does the IC50 read?
A: 45 µM

Q: Which IC50 does the source give for `COc1ccc(C(=O)N2C(=O)[C@@H](C)C3[C@@H]2CCN3C(=O)OCc2ccccc2)cc1` (some centres undefined) here?
A: > 500 µM

Q: With `C[C@@H]1C(=O)N(C(=O)C2[C@@H](C)[C@@H]2C)[C@H]2CCN(C(=O)OCc3ccccc3)C12` (some centres undefined) as the compound, how does the IC50 read?
A: > 100 µM

Q: With `CC(=O)N1C(=O)[C@H](C)[C@H]2[C@H]1CCN2C(=O)[C@@H]1CCCN1C(=O)c1ccccc1` as the compound, how does the IC50 read?
A: > 500 µM

Q: Which IC50 does the source give for `C[C@H]1C(=O)N(C(=O)C2CC2)[C@@H]2CCN(C(=O)C3CCCCN3S(=O)(=O)c3cccc4c(N(C)C)cccc34)[C@H]21` (some centres undefined) here?
A: 13 µM

Q: Which IC50 does the source give for `CC1CC1C(=O)N1C(=O)[C@@H](C)C2[C@@H]1CCN2C(=O)OCc1ccccc1` (some centres undefined) here?
A: 10 µM

Q: With `C[C@@H]1C(=O)N(C(=O)C2[C@@H](C)[C@H]2C)[C@H]2CCN(C(=O)OCc3ccccc3)C12` (some centres undefined) as the compound, how does the IC50 read?
A: 72 µM

Q: For `CC(=O)N1C(=O)[C@@H](C)C2[C@@H]1CCN2CC(=O)Cc1ccccc1` (some centres undefined), which IC50 is on record?
A: 79 µM

Q: For `C[C@@H]1C(=O)N(C(=O)C2CC2)[C@H]2CCN(C(=O)OCc3ccccc3)C12` (some centres undefined), which IC50 is on record?
A: 9 µM

Q: With `C[C@H]1C(=O)N(C(=O)C2CC2)[C@@H]2CCN(C(=O)CN(C)S(=O)(=O)c3cccc4c(N(C)C)cccc34)[C@H]21` as the compound, how does the IC50 read?
A: > 100 µM

Q: With `C[C@@H]1C(=O)N(C=O)[C@H]2CCN(C(=O)OCc3ccccc3)C12` (some centres undefined) as the compound, how does the IC50 read?
A: 398 µM

Q: With `C[C@@H]1C(=O)N(CC(O)COc2ccccc2)[C@H]2CCN(C(=O)OCc3ccccc3)C12` (some centres undefined) as the compound, how does the IC50 read?
A: > 500 µM

Q: For `CC(=O)N1C(=O)[C@@H](C)[C@@H]2[C@@H]1CCN2C(=O)[C@@H]1CCCN1C(=O)c1ccccc1`, which IC50 is on record?
A: 50 µM

Q: With `Cc1ccc(S(=O)(=O)N2CCCC2C(=O)N2CC[C@H]3C2[C@H](C)C(=O)N3C=O)cc1` (some centres undefined) as the compound, how does the IC50 read?
A: 14 µM

Q: With `CC(=O)N1C(=O)[C@H](C)[C@H]2[C@H]1CCN2C(=O)[C@@H]1CCCN1S(=O)(=O)c1ccc([N+](=O)[O-])cc1` as the compound, how does the IC50 read?
A: 11 µM

Q: For `CC(=O)N1C(=O)[C@@H](C)C2[C@@H]1CCN2C(=O)COc1ccccc1` (some centres undefined), which IC50 is on record?
A: 63 µM

Q: Which IC50 does the source give for `CC(NS(=O)(=O)c1cccc2c(N(C)C)cccc12)C(=O)N1CC[C@@H]2[C@@H]1[C@@H](C)C(=O)N2C(=O)C1CC1` (some centres undefined) here?
A: 7 µM

Q: With `CC(C)Oc1cccc(S(=O)(=O)N2CCC[C@H]2C(=O)N2CC[C@H]3[C@H]2[C@H](C)C(=O)N3C(=O)C2CC2)c1` as the compound, how does the IC50 read?
A: 65 µM

Q: With `C[C@@H]1C(=O)N(C(=O)C2Cc3ccccc32)[C@H]2CCN(C(=O)OCc3ccccc3)C12` (some centres undefined) as the compound, how does the IC50 read?
A: 11.5 µM

Q: Which IC50 does the source give for `C[C@@H]1C(=O)N(C(=O)C2CC2)[C@H]2CCN(C(=O)[C@@H]3CCCN3S(=O)(=O)c3cccc(C(=O)N(C)C)c3)[C@H]12` here?
A: 1.4 µM

biological target: T1, Capsid scaffolding protein; experiment: Inhibition of Human cytomegalo virus(HCMV) protease activity measured by HPLC assay; design: species or system Human herpesvirus 5 strain AD169

Q: For `CC(=O)N1C(=O)[C@@H](C)C2[C@@H]1CCN2C(=O)Cc1c(C)[nH]c2ccc(F)cc12` (some centres undefined), which IC50 is on record?
A: 6 µM

Q: Which IC50 does the source give for `CC(=O)OCC(=O)N1C(=O)[C@@H](C)C2[C@@H]1CCN2C(=O)OCc1ccccc1` (some centres undefined) here?
A: 6 µM

Q: With `C[C@@H]1C(=O)N(C(=O)C2CCC2)[C@H]2CCN(C(=O)OCc3ccccc3)C12` (some centres undefined) as the compound, how does the IC50 read?
A: 32 µM

Q: For `CC(=O)OCC(=O)N1C(=O)C(C)C2C1CCN2C(=O)OCc1ccccc1` (centres undefined), which IC50 is on record?
A: 13 µM

Q: For `CC(C)C(=O)N1C(=O)[C@@H](C)C2[C@@H]1CCN2C(=O)OCc1ccccc1` (some centres undefined), which IC50 is on record?
A: 126 µM

Q: Which IC50 does the source give for `CC(=O)N1C(=O)[C@@H](C)C2[C@@H]1CCN2C(=O)C(=O)c1cccn1C` (some centres undefined) here?
A: 5 µM

Q: For `C[C@@H]1C(=O)N(C(=O)C(C)(C)C)[C@H]2CCN(C(=O)OCc3ccccc3)C12` (some centres undefined), which IC50 is on record?
A: > 500 µM

Q: For `C[C@@H]1C(=O)N(C(=O)CCO)[C@H]2CCN(C(=O)OCc3ccccc3)C12` (some centres undefined), which IC50 is on record?
A: 133 µM

biological target: Prothrombin (Homo sapiens, UniProt P00734); experiment: Concentration required for 50% thrombin inhibition

Q: For `CC(=O)N1C(=O)[C@@H](C)[C@@H]2[C@@H]1CCN2C(=O)[C@@H]1CCCN1S(=O)(=O)c1cccc2c(N(C)C)cccc12`, which IC50 is on record?
A: > 200 µM

Q: With `C[C@@H]1C(=O)N(C(=O)C2CC2)[C@H]2CCN(C(=O)[C@@H]3CCCN3S(=O)(=O)c3cccc4c(N(C)C)cccc34)[C@H]12` as the compound, how does the IC50 read?
A: > 200 µM
